Experimental data: patent US20080261994A1, “CYCLOPROPANE COMPOUNDS AND PHARMACEUTICAL USE THEREOF” (Japan Tobacco Inc., priority 2003, published 2008)
pIC50: −log10 of the molar value. Like-named read-outs stand apart in the source and are kept apart here.

What was measured:
Format in all cases: biochemical
aggrecanase-1 = biological target: T1, aggrecanase-1 (Homo sapiens, UniProt O75173); assay: Aggrecanase-1 inhibitory action (Particle Assay, GAG release from aggrecan-containing polyacrylamide particles)
T1 sequence (O75173 213-837): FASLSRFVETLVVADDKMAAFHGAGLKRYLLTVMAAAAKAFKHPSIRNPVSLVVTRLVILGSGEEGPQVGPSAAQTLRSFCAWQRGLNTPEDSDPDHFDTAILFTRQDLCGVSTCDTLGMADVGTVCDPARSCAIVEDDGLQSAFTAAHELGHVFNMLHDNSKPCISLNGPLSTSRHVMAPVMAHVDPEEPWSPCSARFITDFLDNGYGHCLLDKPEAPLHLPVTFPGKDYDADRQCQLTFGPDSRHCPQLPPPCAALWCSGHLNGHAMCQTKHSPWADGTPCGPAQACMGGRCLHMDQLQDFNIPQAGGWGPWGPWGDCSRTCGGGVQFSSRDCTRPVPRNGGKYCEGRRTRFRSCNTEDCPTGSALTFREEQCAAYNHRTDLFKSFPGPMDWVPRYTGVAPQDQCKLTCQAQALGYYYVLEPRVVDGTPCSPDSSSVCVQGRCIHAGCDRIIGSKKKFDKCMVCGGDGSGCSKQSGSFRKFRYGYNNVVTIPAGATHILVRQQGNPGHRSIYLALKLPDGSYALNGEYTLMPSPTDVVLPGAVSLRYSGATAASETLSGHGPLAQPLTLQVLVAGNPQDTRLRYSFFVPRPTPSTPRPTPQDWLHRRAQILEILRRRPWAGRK
Outline: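 Readout was dimethylmethylene blue absorbance (595 nm) of glycosaminoglycan liberated into supernatant, calibrated with whale chondroitin sulfate. Substrate was aggrecan in polyacrylamide particles, digested 15 h at 37° C in Tris-HCl; TC50 (μM) derived from inhibition relative to no-enzyme and no-inhibitor controls.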

MMP-1 = biological target: T2, MMP-1 (Homo sapiens, UniProt P03956); assay: MMP-1 inhibitory action (Type I collagen Activity Measurement kit, FITC-labeled collagen type I)
T2 sequence (P03956 100-469): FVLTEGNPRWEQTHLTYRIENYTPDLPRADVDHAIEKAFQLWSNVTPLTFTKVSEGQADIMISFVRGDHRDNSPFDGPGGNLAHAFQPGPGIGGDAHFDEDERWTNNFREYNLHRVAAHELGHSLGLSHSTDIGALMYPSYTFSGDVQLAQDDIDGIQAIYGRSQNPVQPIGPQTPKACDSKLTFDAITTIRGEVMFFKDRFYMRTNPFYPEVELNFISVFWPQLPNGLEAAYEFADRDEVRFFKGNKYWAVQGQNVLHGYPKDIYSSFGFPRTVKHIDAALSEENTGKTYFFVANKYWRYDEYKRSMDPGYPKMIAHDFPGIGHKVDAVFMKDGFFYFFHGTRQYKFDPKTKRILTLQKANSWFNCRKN

Recombinant Human MMP-13 = biological target: T3, Recombinant Human MMP-13 (Homo sapiens, UniProt P45452); assay: MMP-13 inhibitory activity (MMP-13 specific fluorescent substrate with quencher)
T3 construct: purchased R&D systems 511-MM
Outline: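 IC50 (μM) derived from % inhibition, normalised to wells without enzyme and without inhibitor, fluorescence read at 325/405 nm. Enzyme and compound preceded addition of the quenched 7-MCA…DPA substrate; Tris-HCl buffer, 25 °C for 1 h, acetic-acid stop.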

[1] = Experimental Example 1, read-out: IC50 AG1
[2] = Experimental Example 2, read-out: IC50 MMP1
[3] = Experimental Example 3, read-out: IC50 MMP13
[4] = aggrecanase-1 inhibitory action, read-out: IC50 AG1 (Experimental Example 1)
[5] = MMP-1 inhibitory action, FITC-labeled collagen type I, 37° C. for 3 hr, read-out: IC50 MMP1 (Experimental Example 2)
[6] = Recombinant Human MMP-13, fluorescent substrate, 25° C. for 1 h, read-out: IC50 MMP13 (Experimental Example 3)

| SMILES | pIC50 (aggrecanase-1; [1]) | pIC50 (MMP-1; [2]) | pIC50 (Recombinant Human MMP-13; [3]) | pIC50 (aggrecanase-1; [4]) | pIC50 (MMP-1; [5]) | pIC50 (Recombinant Human MMP-13; [6]) |
| --- | --- | --- | --- | --- | --- | --- |
| O=C(O)C1(NS(=O)(=O)N2CCN(Cc3ccccc3)CC2)CC1c1ccccc1 (stereo not drawn) [Example 2-158] |  |  |  | ≤ 5.00 | ≤ 5.00 | ≤ 5.00 |
| O=C(OCCCc1ccccc1C1CC1(NS(=O)(=O)c1ccc(-c2cc(C(F)(F)F)on2)s1)C(=O)O)N1CCC[C@H]1CO (stereo partly drawn) [Example 2-254] |  |  |  | > 7.00 | ≤ 6.00 | > 7.00 |
| CN1CCN(C(=O)Cc2cccc(C3CC3(NS(=O)(=O)c3ccc(-c4cc(C(F)(F)F)on4)s3)C(=O)O)c2)CC1 (stereo not drawn) [Example 2-221] |  |  |  | > 6.00 | ≤ 6.00 | > 7.00 |
| O=C(O)C1(NS(=O)(=O)c2ccc(-c3cc(C(F)(F)F)on3)s2)CC1(CN1CCCC1)c1ccccc1 (stereo not drawn) [Example 2-329] | ≤ 6.00 | ≤ 5.00 | ≤ 6.00 |  |  |  |
| COCCN(C)C(=O)c1cccc(C2CC2(NS(=O)(=O)c2ccc(-c3ccc(Cl)cc3)s2)C(=O)O)c1 (stereo not drawn) [Example 2-69] |  |  |  | > 7.00 | ≤ 6.00 | > 7.00 |
| CC(C)(C)NCCOc1ccccc1C1CC1(NS(=O)(=O)c1ccc(-c2ccc(Cl)cc2)s1)C(=O)O (stereo not drawn) [Example 2-53] |  |  |  | ≤ 6.00 | ≤ 5.00 | ≤ 6.00 |
| CN(Cc1cccnc1)c1cccc(C2CC2(NS(=O)(=O)c2ccc(-c3cc(C(F)(F)F)on3)s2)C(=O)O)c1 (stereo not drawn) [Example 2-214] |  |  |  | > 7.00 | > 6.00 | > 7.00 |
| O=C(O)[C@]1(NS(=O)(=O)c2ccc(-c3ccc(Cl)cc3)s2)C[C@@H]1c1ccccc1 [Example 1-85] |  |  |  | > 7.00 | ≤ 6.00 | > 7.00 |
| O=C(O)C1(NS(=O)(=O)N2CCN(c3nc4ccccc4s3)CC2)CC1c1ccccc1 (stereo not drawn) [Example 2-157] |  |  |  | ≤ 5.00 | ≤ 5.00 | ≤ 6.00 |
| O=C(NCC1(c2ccccc2)CC1(NS(=O)(=O)c1ccc(-c2ccc(Cl)cc2)s1)C(=O)O)N1CCOCC1 (stereo not drawn) [Example 2-381] | > 6.00 | ≤ 5.00 | > 6.00 |  |  |  |
| O=C(NO)C1(NS(=O)(=O)c2ccc(OCc3ccc(Cl)cc3Cl)cc2)C2CCCc3ccccc3C21 (stereo not drawn) [Example 2-390] | > 6.00 | ≤ 5.00 | ≤ 6.00 |  |  |  |
| CN1CCN(C(=O)Cc2ccc([C@@H]3C[C@]3(NS(=O)(=O)c3ccc(-c4cc(C(F)(F)F)on4)s3)C(=O)O)cc2)CC1 [Example 2-294] | > 7.00 | ≤ 6.00 | > 7.00 |  |  |  |

Second part, the molecule after the results:

| pIC50 (aggrecanase-1; [1]) | pIC50 (MMP-1; [2]) | pIC50 (Recombinant Human MMP-13; [3]) | pIC50 (aggrecanase-1; [4]) | pIC50 (MMP-1; [5]) | pIC50 (Recombinant Human MMP-13; [6]) | SMILES |
| --- | --- | --- | --- | --- | --- | --- |
| > 6.00 | > 6.00 | > 7.00 |  |  |  | CC1[C@H](c2ccccc2)[C@]1(NS(=O)(=O)c1ccc(-n2cc(C(C)(C)O)cn2)s1)C(=O)O (stereo partly drawn) [Example 2-523] |
| > 7.00 | ≤ 6.00 | > 6.00 |  |  |  | C[C@]1(c2ccccc2)C[C@@]1(NS(=O)(=O)c1ccc(-n2cc(Cl)cn2)s1)C(=O)O [Example 2-498] |
| ≤ 6.00 | ≤ 6.00 | ≤ 6.00 |  |  |  | CC1[C@H](c2ccccc2)[C@]1(NS(=O)(=O)N1Cc2ccc(O)cc2C1)C(=O)O (stereo partly drawn) [Example 2-548] |
| ≤ 6.00 | ≤ 6.00 | > 6.00 |  |  |  | CC1[C@H](c2ccccc2)[C@]1(NS(=O)(=O)c1ccc2nc(-c3ccccc3)cn2c1)C(=O)O (stereo partly drawn) [Example 2-622] |
| > 7.00 | > 6.00 | > 6.00 |  |  |  | C[C@]1(c2cccc(F)c2)C[C@@]1(NS(=O)(=O)c1ccc(-c2cc(C(F)(F)F)on2)s1)C(=O)O [Example 2-618] |
| ≤ 6.00 | ≤ 5.00 | ≤ 5.00 |  |  |  | C[C@]1(c2ccccc2)C[C@@]1(NS(=O)(=O)c1ccc(-c2cccc(C(=O)O)c2)s1)C(=O)O [Example 2-479] |
| > 6.00 | ≤ 6.00 | > 7.00 |  |  |  | CC1[C@H](c2ccccc2)[C@]1(NS(=O)(=O)c1ccc(-n2cc(Cl)cn2)nc1)C(=O)O (stereo partly drawn) [Example 2-557] |
